According to PubChem BioAssay AID214 (DTP/NCI, 2004):
Several values for one entry are separate records, joined by “and”; a condition that tells them apart may be missing. Equal entries are not always repeated. Inconclusive results are not listed.

Tested on: B6C3F1 mice, colon carcinoma 38 s.c., T/C
Assay: NCI In Vivo Anticancer Drug Screen. Data for tumor model Colon Carcinoma 38 (subcutaneous) in B6C3F1 mice
Details: vehicle: saline
Protocol: The antitumor activity of compounds was measured in mice bearing transplantable tumors. Survival or tumor size were measured and the results are expressed as the measurement made in the treated group (T) divided by the measurement made in the vehicle treated control group (C). The tumor model used in this assay is Colon Carcinoma 38 (subcutaneous) in B6C3F1 mice

CCN(CC)CCOC(=O)Cc1cccc2c(=O)cc(-c3ccccc3)oc12
T/C (endpoint: median survival time, dose: 3.12 mg/kg/injection, schedule: Q01DX001 (iv), higher = longer survival): 101 % of control | T/C (endpoint: median survival time, dose: 3.12 mg/kg/injection, schedule: Q07DX002 (iv), higher = longer survival): 102 % of control | T/C (endpoint: median survival time, dose: 6.25 mg/kg/injection, schedule: Q01DX001 (iv), higher = longer survival): 102 % of control | T/C (endpoint: median survival time, dose: 6.25 mg/kg/injection, schedule: Q07DX002 (iv), higher = longer survival): 106 % of control | T/C (endpoint: median survival time, dose: 15.82 mg/kg/injection, schedule: Q07DX002 (iv), higher = longer survival): 92 % of control | T/C (endpoint: median survival time, dose: 21.09 mg/kg/injection, schedule: Q01DX001 (iv), higher = longer survival): 101 % of control | T/C (endpoint: median survival time, dose: 21.09 mg/kg/injection, schedule: Q07DX002 (iv), higher = longer survival): 96 % of control | T/C (endpoint: median survival time, dose: 25.0 mg/kg/injection, schedule: Q07DX002 (iv), higher = longer survival): 87 % of control | T/C (endpoint: median survival time, dose: 28.13 mg/kg/injection, schedule: Q01DX001 (iv), higher = longer survival): 100 % of control | T/C (endpoint: median survival time, dose: 28.13 mg/kg/injection, schedule: Q07DX002 (iv), higher = longer survival): 121 % of control | T/C (endpoint: median survival time, dose: 37.5 mg/kg/injection, schedule: Q01DX001 (iv), higher = longer survival): 92 % of control | T/C (endpoint: median survival time, dose: 37.5 mg/kg/injection, schedule: Q07DX002 (iv), higher = longer survival): 110 % of control | T/C (endpoint: median survival time, dose: 50.0 mg/kg/injection, schedule: Q01DX001 (iv), higher = longer survival): 96 % of control | T/C (endpoint: median survival time, dose: 112.5 mg/kg/injection, schedule: Q01DX001 (ip), higher = longer survival): 89 % of control | T/C (endpoint: median survival time, dose: 112.5 mg/kg/injection, schedule: Q07DX002 (ip), higher = longer survival): 90 % of control and 120 % of control | T/C (endpoint: median survival time, dose: 150.0 mg/kg/injection, schedule: Q01DX001 (ip), higher = longer survival): 96 % of control and 99 % of control | T/C (endpoint: median survival time, dose: 150.0 mg/kg/injection, schedule: Q07DX002 (ip), higher = longer survival): 167 % of control and 218 % of control | T/C (endpoint: median survival time, dose: 200.0 mg/kg/injection, schedule: Q07DX002 (ip), higher = longer survival): 220 % of control and 238 % of control | T/C (endpoint: median survival time, dose: 266.7 mg/kg/injection, schedule: Q01DX001 (ip), higher = longer survival): 171 % of control and 176 % of control | T/C (endpoint: median survival time, dose: 266.7 mg/kg/injection, schedule: Q07DX002 (ip), higher = longer survival): 220 % of control and 238 % of control | T/C (endpoint: median survival time, dose: 355.6 mg/kg/injection, schedule: Q01DX001 (ip), higher = longer survival): 220 % of control and 232 % of control | T/C (endpoint: median tumor weight (est.), dose: 21.09 mg/kg/injection, schedule: Q07DX002 (iv), higher = larger tumour): 86 % of control | T/C (endpoint: median tumor weight (est.), dose: 26.7 mg/kg/injection, schedule: Q03HX024 (ip), higher = larger tumour): 115 % of control | T/C (endpoint: median tumor weight (est.), dose: 28.13 mg/kg/injection, schedule: Q01DX001 (iv), higher = larger tumour): 77 % of control and 89 % of control | T/C (endpoint: median tumor weight (est.), dose: 35.6 mg/kg/injection, schedule: Q03HX024 (ip), higher = larger tumour): 155 % of control | T/C (endpoint: median tumor weight (est.), dose: 35.6 mg/kg/injection, schedule: Q06HX016 (ip), higher = larger tumour): 86 % of control | T/C (endpoint: median tumor weight (est.), dose: 37.5 mg/kg/injection, schedule: Q01DX001 (iv), higher = larger tumour): 107 % of control | T/C (endpoint: median tumor weight (est.), dose: 47.5 mg/kg/injection, schedule: Q01DX008 (ip), higher = larger tumour): 79 % of control | T/C (endpoint: median tumor weight (est.), dose: 47.5 mg/kg/injection, schedule: Q03HX006 (ip), higher = larger tumour): 117 % of control | T/C (endpoint: median tumor weight (est.), dose: 47.5 mg/kg/injection, schedule: Q03HX024 (ip), higher = larger tumour): 83 % of control | T/C (endpoint: median tumor weight (est.), dose: 47.5 mg/kg/injection, schedule: Q06HX016 (ip), higher = larger tumour): 75 % of control | T/C (endpoint: median tumor weight (est.), dose: 50.0 mg/kg/injection, schedule: Q01DX001 (iv), higher = larger tumour): 50 % of control | T/C (endpoint: median tumor weight (est.), dose: 63.3 mg/kg/injection, schedule: Q03HX006 (ip), higher = larger tumour): 63 % of control | T/C (endpoint: median tumor weight (est.), dose: 63.3 mg/kg/injection, schedule: Q06HX016 (ip), higher = larger tumour): 93 % of control | T/C (endpoint: median tumor weight (est.), dose: 84.4 mg/kg/injection, schedule: Q01DX008 (ip), higher = larger tumour): 111 % of control | T/C (endpoint: median tumor weight (est.), dose: 84.4 mg/kg/injection, schedule: Q03HX006 (ip), higher = larger tumour): 63 % of control | T/C (endpoint: median tumor weight (est.), dose: 84.4 mg/kg/injection, schedule: Q06HX004 (ip), higher = larger tumour): 75 % of control | T/C (endpoint: median tumor weight (est.), dose: 84.4 mg/kg/injection, schedule: Q06HX016 (ip), higher = larger tumour): 63 % of control | T/C (endpoint: median tumor weight (est.), dose: 84.4 mg/kg/injection, schedule: Q07DX002 (ip), higher = larger tumour): 60 % of control | T/C (endpoint: median tumor weight (est.), dose: 112.5 mg/kg/injection, schedule: Q01DX008 (ip), higher = larger tumour): 73 % of control | T/C (endpoint: median tumor weight (est.), dose: 112.5 mg/kg/injection, schedule: Q03HX006 (ip), higher = larger tumour): 18 % of control | T/C (endpoint: median tumor weight (est.), dose: 112.5 mg/kg/injection, schedule: Q06HX004 (ip), higher = larger tumour): 60 % of control | T/C (endpoint: median tumor weight (est.), dose: 150.0 mg/kg/injection, schedule: Q06HX004 (ip), higher = larger tumour): 54 % of control | T/C (endpoint: median tumor weight (est.), dose: 200.0 mg/kg/injection, schedule: Q01DX001 (ip), higher = larger tumour): 20 % of control and 22 % of control | T/C (endpoint: median tumor weight (est.), dose: 200.0 mg/kg/injection, schedule: Q06HX004 (ip), higher = larger tumour): 9 % of control | T/C (endpoint: median tumor weight (est.), dose: 200.0 mg/kg/injection, schedule: Q07DX002 (ip), higher = larger tumour): 4 % of control and 9 % of control | T/C (endpoint: median tumor weight (est.), dose: 266.7 mg/kg/injection, schedule: Q01DX001 (ip), higher = larger tumour): 7 % of control and 13 % of control
